Assay [1] relates to HER2-overexpressing human stomach cancer cell line NCI-N87 cells. In words: Cytostatic activity against HER2-expressing cell line (NCI-N87), CellTiter-Glo. The class given is cell-based. Conditions: 3-day culture, read-out: NCI-N87 cell growth inhibitory activity IC50 value. An excerpt:
(§1) HER2-overexpressing human stomach cancer cell line NCI-N87 cells were suspended in RPMI1640 medium (manufactured by Life Technologies Corp.) containing 10% fetal bovine serum. Meanwhile, EGFR-overexpressing highly activated human epithelioid cancer cell line A431 cells were suspended in DMEM, high glucose medium (manufactured by Life Technologies Corp.) containing 10% fetal bovine serum. Subsequently, each cell suspension was inoculated to each well of a 384-well flat-bottom microplate and cultured at 37° C. for 1 day in an incubator containing 5% carbon dioxide. The synthesis example compound was dissolved in DMSO, and the test compound was diluted into a concentration of 500 times the final concentration using DMSO. The solution of the test compound in DMSO was diluted with the medium used in the suspension of each cell line, and this solution was added at a final concentration of DMSO of 0.2% to each well of the cell culture plate, followed by further culture at 37° C. for 3 days in an incubator containing 5% carbon dioxide.

Assay [2] relates to HER2-overexpressing human breast cancer cell line SK-BR-3 cells. In words: Cytostatic activity against HER2-expressing cell line (SK-BR-3), CellTiter-Glo. Type of assay: cell-based. Conditions: 3-day culture, read-out: SK-BR-3 cell growth inhibitory activity IC50 value. The protocol:
(§2) Rate of growth inhibition (%)=(C−T)/(C)×100 T: Luminescence intensity of a well supplemented with the test compound C: Luminescence intensity of a well not supplemented with the test compound
as §1, with “breast” for “stomach”, “SK-BR-3” for “NCI-N87”, “McCoy's 5a” for “RPMI1640”, “The” for “Meanwhile, EGFR-overexpressing highly activated human epithelioid cancer cell line A431 cells were suspended in DMEM, high glucose medium (manufactured by Life Technologies Corp.) containing 10% fetal bovine serum. Subsequently, each”, “into” for “into a concentration of”, “times as high concentration as” for “times”
For orientation: ATP-based viability assays read luminescence as a measure of living cells.

Assay [3] relates to EGFR-overexpressing highly activated human epithelioid cancer cell line A431 cells. In words: Cytostatic activity against EGFR-expressing cell line (A431), CellTiter-Glo. The class given is cell-based. Conditions: 3-day culture, read-out: A431 cell growth inhibitory activity IC50 value.
Description: as §1, §2

The target in assay [4] is purified recombinant human HER2 protein (Homo sapiens (Human), UniProt P04626). The experiment in a line: Measurement of inhibitory effect on HER2-phosphorylating activity (in vitro). Type of assay: biochemical. Conditions: ATP 6 μM, 25° C., 40 minutes. An excerpt: The purified recombinant human HER2 protein used in the test was purchased from Carna Biosciences, Inc.
For the inhibitory activity measurement of each compound, the synthesis example compound was first serially diluted with dimethyl sulfoxide (DMSO).

Where two headings read alike, the source gives them in different places.

purified recombinant human HER2 protein, sequence (P04626 23-1255): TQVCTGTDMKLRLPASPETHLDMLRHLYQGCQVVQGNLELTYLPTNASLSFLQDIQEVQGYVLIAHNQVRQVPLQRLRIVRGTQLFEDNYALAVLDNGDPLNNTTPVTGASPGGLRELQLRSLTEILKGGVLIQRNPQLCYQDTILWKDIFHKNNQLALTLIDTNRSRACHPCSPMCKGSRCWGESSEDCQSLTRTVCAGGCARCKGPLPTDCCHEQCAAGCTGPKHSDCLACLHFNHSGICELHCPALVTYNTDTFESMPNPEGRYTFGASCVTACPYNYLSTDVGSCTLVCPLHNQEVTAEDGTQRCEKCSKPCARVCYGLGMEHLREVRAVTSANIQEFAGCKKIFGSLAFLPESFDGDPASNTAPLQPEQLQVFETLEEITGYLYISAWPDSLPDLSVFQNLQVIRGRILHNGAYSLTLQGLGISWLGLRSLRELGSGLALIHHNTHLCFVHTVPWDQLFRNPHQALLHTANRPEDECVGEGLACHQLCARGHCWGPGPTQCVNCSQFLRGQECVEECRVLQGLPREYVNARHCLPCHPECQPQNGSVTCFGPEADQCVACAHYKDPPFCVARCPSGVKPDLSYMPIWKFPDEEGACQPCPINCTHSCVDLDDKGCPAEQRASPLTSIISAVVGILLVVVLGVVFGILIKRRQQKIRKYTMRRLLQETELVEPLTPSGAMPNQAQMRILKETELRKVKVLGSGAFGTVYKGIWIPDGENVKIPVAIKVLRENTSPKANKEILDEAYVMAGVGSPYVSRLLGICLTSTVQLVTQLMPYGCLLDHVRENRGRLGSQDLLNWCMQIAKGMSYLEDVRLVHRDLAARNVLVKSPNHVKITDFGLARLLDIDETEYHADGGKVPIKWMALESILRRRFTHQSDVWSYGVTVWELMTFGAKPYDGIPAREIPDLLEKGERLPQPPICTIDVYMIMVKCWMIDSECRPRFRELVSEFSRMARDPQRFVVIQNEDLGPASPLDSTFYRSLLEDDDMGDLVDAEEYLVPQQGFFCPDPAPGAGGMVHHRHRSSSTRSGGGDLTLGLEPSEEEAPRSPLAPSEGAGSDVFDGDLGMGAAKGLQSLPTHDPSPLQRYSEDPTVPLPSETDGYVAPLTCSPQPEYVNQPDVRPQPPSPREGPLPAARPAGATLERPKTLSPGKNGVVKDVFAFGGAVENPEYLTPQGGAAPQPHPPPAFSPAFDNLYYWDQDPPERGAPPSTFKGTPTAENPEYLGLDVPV

What is called IC50 is the concentration needed to halve the response being measured. In the case of `C=CC(=O)N1CCC[C@@H](n2nc(C(=O)Nc3ccc(CC(=O)N(C)C)c(C)c3C)c3c(N)ncnc32)C1` [compound 13, (R)-1-(1-acryloylpiperidin-3-yl)-4-amino-N-(4-(2-(dimethylamino)-2-oxoethyl)-2,3-dimethylphenyl)-1H-pyrazolo[3,4-d]pyrimidine-3-carboxamide], the IC50 in assay [1] (Homo sapiens, NCI-N87, 72 h) is 5 nM; in assay [2] (Homo sapiens, SK-BR-3, 72 h), 9 nM; in assay [3] (Homo sapiens, A-431, 72 h), 1210 nM.

In the case of `C=CC(=O)N1CCC[C@@H](n2nc(C(=O)Nc3cc(C)c(OC(=O)N(C)C)cc3C)c3c(N)ncnc32)C1` [compound 38], the IC50 in assay [1] worked out at 8 nM; in assay [2] it was 12 nM; in assay [3], 1040 nM.

As to `C=CC(=O)N1CCC[C@@H](n2nc(C(=O)Nc3ccc(CC(=O)N(C)C)c4c3OCO4)c3c(N)ncnc32)C1` [compound 53], the IC50 in assay [2] was 18 nM; in assay [4] it was 14 nM.

As to `C=CC(=O)N1CC(F)C[C@@H](n2nc(C(=O)Nc3ccc(CC(=O)N(C)C)cc3Cl)c3c(N)ncnc32)C1` (stereo partly drawn) [compound 76, 1-((3R)-1-acryloyl-5-fluoropiperidin-3-yl)-4-amino-N-(2-chloro-4-(2-(dimethylamino)-2-oxoethyl)phenyl)-1H-pyrazolo[3,4-d]pyrimidine-3-carboxamide], the IC50 worked out at 8 nM in assay [2] (Homo sapiens, SK-BR-3, 72 h) and 2070 nM in assay [3] (Homo sapiens, A-431, 72 h).

Take `C=CC(=O)N1CCC[C@@H](n2nc(C(=O)Nc3ccc(CC(=O)N(C)C)c4ccccc34)c3c(N)ncnc32)C1` [compound 5]: the half-maximal inhibitory concentration (IC50) turned out to be 6 nM in assay [1], 11 nM in assay [2] and 1230 nM in assay [3].

`C=CC(=O)N1CCC[C@@H](n2nc(C(=O)Nc3ccc(OC(=O)N(C)C)c(Cl)c3)c3c(N)ncnc32)C1` [compound 29]: the IC50 in assay [1] amounted to 46 nM; in assay [2], 44 nM; in assay [3] it was 2220 nM; in assay [4] it was 6.5 nM.

For `C=CC(=O)N1CCC[C@@H](n2nc(C(=O)Nc3ccc(CC(=O)N(C)C)cc3OC(F)F)c3c(N)ncnc32)C1` [compound 15], the IC50 in assay [1] was 20 nM; in assay [2], 30 nM; in assay [3], 2270 nM; in assay [4], 8.6 nM.

With `C=CC(=O)N1CCC[C@@H](n2nc(C(=O)Nc3ccc(OC(=O)N(C)C)c(C)c3C)c3c(N)ncnc32)C1` [compound 32], the results for the IC50 in assay [1], in assay [2] and in assay [3] were 7 nM, 14 nM and 1920 nM, respectively.

On to `C=CC(=O)N1CCC[C@@H](n2nc(C(=O)Nc3ccc(OC(=O)N(C)C)cc3C)c3c(N)ncnc32)C1` [compound 26], for which the IC50 is 5 nM in assay [1], 8 nM in assay [2], 984 nM in assay [3] and 7 nM in assay [4].

In the case of `C=CC(=O)N1CCC[C@@H](n2nc(C(=O)Nc3ccc(OC(=O)N(C)C)cc3Cl)c3c(N)ncnc32)C1` [compound 27], the IC50 was 5 nM in assay [1], 9 nM in assay [2] and 1510 nM in assay [3].

In the case of `C=CC(=O)N1CCC[C@@H](n2nc(C(=O)Nc3cc(Br)c(CC(=O)N(C)C)cc3C)c3c(N)ncnc32)C1` [compound 1], the IC50 in assay [1] came to 19 nM; in assay [2] it was 20 nM; in assay [3], 2320 nM; in assay [4] it was 10 nM.

As to `C=CC(=O)N1CCC[C@@H](n2nc(C(=O)Nc3ccc(OC(=O)N(C)C)c(C)c3)c3c(N)ncnc32)C1` [compound 30], the IC50 was 23 nM in assay [1], 39 nM in assay [2] and 2350 nM in assay [3].

`C=CC(=O)N1CCC[C@@H](n2nc(C(=O)Nc3ccc(OC(=O)N(C)C)cc3OC)c3c(N)ncnc32)C1` [compound 36]: the IC50 in assay [2] is 12 nM.

In the case of `C=CC(=O)N1CC(F)C[C@@H](n2nc(C(=O)Nc3ccc(CC(=O)N(C)C)c(C)c3C)c3c(N)ncnc32)C1` (stereo partly drawn) [compound 77, 1-((3R)-1-acryloyl-5-fluoropiperidin-3-yl)-4-amino-N-(4-(2-(dimethylamino)-2-oxoethyl)-2,3-dimethylphenyl)-1H-pyrazolo[3,4-d]pyrimidine-3-carboxamide], the IC50 turned out to be 12 nM in assay [2] (Homo sapiens, SK-BR-3, 72 h) and 2460 nM in assay [3] (Homo sapiens, A-431, 72 h).

For the molecule `C=CC(=O)N1CCC[C@@H](n2nc(C(=O)Nc3cc(F)c(CC(=O)N(C)C)cc3C)c3c(N)ncnc32)C1` [compound 10], the IC50 in assay [1] came out at 6 nM; in assay [2] it was 21 nM; in assay [3] it was 1410 nM; in assay [4], 13 nM.

For the molecule `C=CC(=O)N1CCC[C@@H](n2nc(C(=O)Nc3ccc(CC(=O)N(C)C)c(Cl)c3OC)c3c(N)ncnc32)C1` [compound 11], the IC50 in assay [1] was 4 nM; in assay [2] it was 12 nM; in assay [3], 961 nM; in assay [4], 7.5 nM.

On to `C=CC(=O)N1CCC[C@@H](n2nc(C(=O)Nc3ccc(CC(=O)N(C)C)cc3Br)c3c(N)ncnc32)C1` [compound 17], for which the IC50 in assay [1] was determined as 5 nM; in assay [2], 13 nM; in assay [3], 910 nM; in assay [4], 5.9 nM.

In the case of `C=CC(=O)N1CCC[C@@H](n2nc(C(=O)Nc3ccc(CC(=O)N(C)C)c(F)c3OC)c3c(N)ncnc32)C1` [compound 14], the IC50 was found to be 4 nM in assay [1], 10 nM in assay [2], 486 nM in assay [3] and 4.6 nM in assay [4].

For the molecule `C=CC(=O)N1CCC[C@@H](n2nc(C(=O)Nc3ccc(CC(=O)N(C)C)cc3Cl)c3c(N)ncnc32)C1` [compound 6], the IC50 in assay [1] stood at 7 nM; in assay [2], 14 nM; in assay [3] it was 1290 nM; in assay [4] it was 4 nM.

For `C=CC(=O)N1CCC[C@@H](n2nc(C(=O)Nc3cc(C)c(CC(=O)N(C)C)cc3Cl)c3c(N)ncnc32)C1` [compound 2], the 50% inhibitory concentration (IC50) in assay [1] is 45 nM; in assay [2] it was 30 nM; in assay [3] it was 2670 nM; in assay [4] it was 8.3 nM.

`C=CC(=O)N1CCC[C@@H](n2nc(C(=O)Nc3ccc(CC(=O)N(C)C)cc3C)c3c(N)ncnc32)C1` [compound 4]: the IC50 in assay [1] was 12 nM; in assay [2] it was 16 nM; in assay [3] it was 2610 nM; in assay [4], 12 nM.

As for `C=CC(=O)N1CCC[C@@H](n2nc(C(=O)Nc3ccc(CC(=O)N(C)C)cc3OCF)c3c(N)ncnc32)C1` [compound 16], the IC50 in assay [1] is 27 nM; in assay [2] it was 40 nM; in assay [3] it was 3460 nM; in assay [4] it was 10 nM.

For `C=CC(=O)N1CCC[C@@H](n2nc(C(=O)Nc3ccc(CC(=O)N(C)C)c(C)c3Cl)c3c(N)ncnc32)C1` [compound 3], the IC50 came to 27 nM in assay [1], 9 nM in assay [2], 3370 nM in assay [3] and 7.1 nM in assay [4].

Turning to `C=CC(=O)N1CCC[C@@H](n2nc(C(=O)Nc3ccc(CC(=O)N(C)C)cc3OC)c3c(N)ncnc32)C1` [compound 7], the half-inhibitory concentration (IC50) in assay [1] stood at 12 nM; in assay [2] it was 31 nM; in assay [3], 2800 nM; in assay [4] it was 7.1 nM.

As for `C=CC(=O)N1CCC[C@@H](n2nc(C(=O)Nc3cc(Cl)c(CC(=O)N(C)C)cc3C)c3c(N)ncnc32)C1` [compound 19], the IC50 in assay [1] was 12 nM; in assay [2] it was 24 nM; in assay [3], 1260 nM; in assay [4], 10 nM.
